{
  "source": "patent US5344846A",
  "about": "“Compositions and methods for inhibiting deoxyhypusine synthase and the growth of cells” (The United States of America as represented by the …, priority 1992, dated 1994)",
  "key": {"[1]": {"target": "T1, deoxyhypusine synthase from rat testis (Rattus norvegicus, UniProt Q6AY53)", "T1 construct": "as catalyzed by deoxyhypusine synthase from rat testis; from tissue; host or cells: rat testis", "T1 sequence (Q6AY53 1-369)": "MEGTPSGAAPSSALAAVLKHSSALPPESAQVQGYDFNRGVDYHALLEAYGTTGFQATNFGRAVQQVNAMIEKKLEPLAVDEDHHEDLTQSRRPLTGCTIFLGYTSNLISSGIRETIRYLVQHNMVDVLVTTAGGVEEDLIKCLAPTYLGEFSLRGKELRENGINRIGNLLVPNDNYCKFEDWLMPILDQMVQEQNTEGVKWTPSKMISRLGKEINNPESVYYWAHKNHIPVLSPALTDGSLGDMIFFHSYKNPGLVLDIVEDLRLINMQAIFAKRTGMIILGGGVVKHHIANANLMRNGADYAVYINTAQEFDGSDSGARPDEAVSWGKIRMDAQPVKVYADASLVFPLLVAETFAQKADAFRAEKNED", "conditions": "cited from earlier work"}, "[2]": {"target": "T2, deoxyhypusine synthase (Rattus norvegicus, UniProt Q6AY53)", "T2 construct": "full-length homotetramer; substrate was human eIF-5A precursor expressed in E. coli", "T2 sequence (Q6AY53 1-369)": "T1 sequence (Q6AY53 1-369)", "conditions": "earlier publications, cited from earlier work"}, "[3]": {"system": "deoxyhypusine synthase from HTC cells", "conditions": "cited from earlier work; for inhibition of deoxyhypusine synthase: 20 μM inhibitor, 1 μM spermidine, precursor from DFMO-treated HTC cells"}, "[4]": {"conditions": "cited from earlier work"}, "[5]": {"target": "T1, deoxyhypusine synthase from rat testis", "assay": "Inhibition of deoxyhypusine synthase ([3H]deoxyhypusine formation from [3H]spermidine), IC50/Ki", "assay_type": "biochemical", "conditions": "for inhibition of deoxyhypusine synthase (in words): pH 9.3, 37° C., 1 hour, 2.4 μM [3H]spermidine; for relative inhibitory potency (in words): comparison with parent amine, bisguanylated counterpart or another inhibitor", "experimental": "The enzyme assay was performed as previously described (see Wolff et al. (1990) J. Biol. Chem. 265:4793-4799; and Park et al. (1991) J. Biol. Chem. 266:7988-7994). A typical assay mixture included 0.2M glycine, 1 mM dithiothreitol, 0.5 mM NAD^+, 2.4 micromolar (μM) [1,8-^3 H] spermidine, 1 μM ec-eIF-5A(Lys), 25 micrograms (μg) bovine serum albumin, and 3-15 units of enzyme in a total volume of 20 microliters (μl). Incubations were carried out at pH 9.3 and 37° C. for 1 hour. […] Percent inhibition was plotted versus log inhibitor concentration in order to obtain graphic estimates of IC50 values, i.e., the concentrations inhibiting [^3 H]deoxyhypusine production by 50%. The IC50 values reported in the tables were calculated by fitting the data points to equation 1 where x=% inhibition and I is the inhibitor concentration. [formula] The nature of the inhibition was determined by plotting reciprocal velocities of [^3 H]deoxyhypusine production against reciprocals of [^3 H]spermidine concentrations at a constant fixed level of ec-eIF-5A(Lys) (1 μM) and at set inhibitor concentrations. […] Estimates of Ki values were made by fitting the data to equation 2; wherein v is the velocity of the reaction, V is the maximum velocity, S is the substrate concentration, Km is Michaeli's constant, Ki is the inhibition constant, and I is the inhibitor concentration. [formula] All fits were performed by means of an interactive curve-fitting program, MLAB, developed and modified at the National Institutes of Health to run on an IBM personal computer."}, "[6]": {"system": "pea seedling diamine oxidase", "conditions": "cited from earlier work"}, "[7]": {"system": "oat seedling polyamine oxidase", "conditions": "cited from earlier work"}, "[8]": {"system": "deoxyhypusine synthase", "conditions": "cited from earlier work"}, "[9]": {"target": "T2, deoxyhypusine synthase", "assay": "Substrate property for deoxyhypusine synthase", "assay_type": "biochemical", "conditions": "conditions similar to those for N-(3-aminopropyl)cadaverine", "experimental": "(See Wolff et al. (1990) J. Biol. Chem. 265:4793-4799.) The Km(app) values for the substrates, spermidine, NAD^+ and eIF-5A precursor from spermidine-depleted CHO cells, have been calculated as approximately 4, 30, and 0.08 μM, respectively.\nThis finding is consistent with the conclusion that this lysine is the only one in the precursor that is converted to hypusine, both in cells and in the enzyme reaction in vitro."}},
  "note": "“Also recorded” adds a separate entry of the source. Where two headings read alike, the source gives them in different places.",
  "data": [
    {"molecule": "16-membered peptide: modeled on residues 40-55 of the human eIF-5A precursor protein and encompassing Lys^50 (IVEMSTSKTGKHGHAK; UniProt P63241 40-55, looked up, fragment)", "values": [
      {"measurement": "inhibition by precursor-related peptide", "setting": "[1]", "value": "only weak inhibition"},
      {"measurement": "substrate or cofactor function for deoxyhypusine synthase", "setting": "[2]", "value": "failed to act as a substrate"}
    ]},
    {"molecule": "NCCCNCCC(F)CN", "note": "(stereo not shown) [7-monofluorospermidine]", "values": [
      {"measurement": "inhibition of deoxyhypusine synthase", "setting": "[3]", "value": 35, "unit": "%"}
    ]},
    {"molecule": "NCCCCNCCCN", "note": "[Compound 10, spermidine]", "values": [
      {"measurement": "pKa of N1-amino group", "setting": "[4]", "value": 9.94},
      {"measurement": "pKa of N8-amino group", "setting": "[4]", "value": 10.81}
    ]},
    {"molecule": "NCCCCCNCCCN", "note": "[Compound 11, N-(3-aminopropyl)cadaverine]", "values": [
      {"measurement": "inhibition of deoxyhypusine synthase (in words)", "setting": "[5]", "value": "some degree of inhibition"},
      {"measurement": "substrate or cofactor function for deoxyhypusine synthase", "setting": "[2]; listed as N-(3-aminopropyl)cadaverine", "value": "function as a substrate for deoxyhypusine synthase, albeit a poor one; also recorded: acts as a substrate"},
      {"measurement": "substrate or cofactor function for deoxyhypusine synthase", "setting": "[2]; listed as compound 11", "value": "functions as a substrate, albeit a poor one"}
    ]},
    {"molecule": "NCCCNCC(F)CCN", "note": "(stereo not shown) [Compound 36, 6-fluorospermidine]", "values": [
      {"measurement": "inhibition of deoxyhypusine synthase (in words)", "setting": "[5]", "value": "quite strong inhibitors; also recorded: effective inhibition; also recorded: act as inhibitors"},
      {"measurement": "inhibition of deoxyhypusine synthase", "setting": "[3]", "value": 86, "unit": "%"},
      {"measurement": "pKa of N1-amino group", "setting": "[4]", "value": 10.40},
      {"measurement": "pKa of N8-amino group", "setting": "[4]", "value": 9.55}
    ]},
    {"molecule": "NCCCNCC(F)(F)CCN", "note": "[Compound 37, 6,6-difluorospermidine]", "values": [
      {"measurement": "inhibition of deoxyhypusine synthase (in words)", "setting": "[5]", "value": "quite strong inhibitors; also recorded: effective inhibition; also recorded: act as inhibitors"},
      {"measurement": "inhibition of deoxyhypusine synthase", "setting": "[3]", "value": 90, "unit": "%"},
      {"measurement": "Ki (in words)", "setting": "[3]; HTC cell enzyme", "value": "very close to that for 1,3-diaminopropane and to the Km value for spermidine"},
      {"measurement": "pKa of N1-amino group", "setting": "[4]", "value": 10.34},
      {"measurement": "pKa of N8-amino group", "setting": "[4]", "value": 9.29}
    ]},
    {"molecule": "NCCCNCCC(F)(F)CN", "note": "[Compound 38, 7,7-Difluorospermidine]", "values": [
      {"measurement": "inhibition of deoxyhypusine synthase (in words)", "setting": "[5]", "value": "devoid of inhibitory activity; also recorded: no inhibition"},
      {"measurement": "inhibition of deoxyhypusine synthase", "setting": "[3]", "value": 0, "unit": "%"},
      {"measurement": "pKa of N8-amino group", "setting": "[4]", "value": 6.64}
    ]},
    {"molecule": "NCCCNCCCON", "note": "[Compound 39, N-(3-aminooxypropyl)-1,3-diaminopropane]", "values": [
      {"measurement": "inhibition of deoxyhypusine synthase (in words)", "setting": "[5]", "value": "without effect; also recorded: does not function as an inhibitor"},
      {"measurement": "pKa of aminooxy group", "setting": "[4]; aminooxy group", "value": "4.5-5.0"}
    ]},
    {"molecule": "N=C(N)NCCCCCCCCNCCCCCCCCNC(=N)N", "note": "[Compound 40, guazatine]", "values": [
      {"measurement": "inhibition of pea seedling diamine oxidase", "setting": "[6]", "value": "known to inhibit"},
      {"measurement": "inhibition of oat seedling polyamine oxidase", "setting": "[7]", "value": "known to inhibit"},
      {"measurement": "inhibition of deoxyhypusine synthase (literature)", "setting": "[8]", "value": "strong inhibitor"}
    ]},
    {"molecule": "N=C(N)NCCCNCCCCN", "note": "[Compound 51, N^1 -guanylspermidine]", "values": [
      {"measurement": "relative inhibitory potency (in words)", "setting": "[5]", "value": "exceeded bisguanylated spermidine (compound 53) as inhibitors; also recorded: uniformly more efficient inhibition"},
      {"measurement": "inhibition of deoxyhypusine synthase (in words)", "setting": "[5]", "value": "high affinities for the enzyme"},
      {"measurement": "substrate property for deoxyhypusine synthase", "setting": "[9]", "value": "Neither displayed any detectable substrate property"}
    ]},
    {"molecule": "N=C(N)NCCCCNCCCN", "note": "[Compound 52, N^8 -guanylspermidine]", "values": [
      {"measurement": "relative inhibitory potency (in words)", "setting": "[5]", "value": "exceeded bisguanylated spermidine (compound 53) as inhibitors; also recorded: uniformly more efficient inhibition; also recorded: somewhat more effective inhibitor than N^1 -guanylspermidine (compound 51)"},
      {"measurement": "inhibition of deoxyhypusine synthase (in words)", "setting": "[5]", "value": "high affinities for the enzyme"},
      {"measurement": "substrate property for deoxyhypusine synthase", "setting": "[9]", "value": "Neither displayed any detectable substrate property; also recorded: If it were, it would function as a substrate which it does not"}
    ]}
  ]
}
